In brackets after ≈: the same amount, converted by molar mass. Activity calls are given as the source filed them. The rule behind the calls is not given here.
Experiments:
[1] = test system: Plasmodium falciparum; assay: Antiplasmodial activity against Plasmodium falciparum 3D7 at 1 ug/mL; assay type: functional, organism-based
[2] = Cytotoxicity against human COLO201 cells; assay type: cell-based; details: COLO 201
[3] = test system: Plasmodium falciparum; assay: Antiplasmodial activity against Plasmodium falciparum 3D7; assay type: functional, organism-based

Row | IC50 [3] | Structure (SMILES) | Activity [1] | IC50 [2]
1 | – | CC(=O)O[C@H]1C[C@@H]([C@@H](C)C2=CC(=O)OC2)[C@H](C=O)[C@@]2(C)CCCC(C)(C)[C@H]12 | inactive | > 100 µg/mL
2 | – | CC(=O)O[C@H]1C[C@H]2[C@@H](C)C3=CC(=O)O[C@]3(O)C[C@@H]2[C@@]2(C)CCCC(C)(C)[C@H]12 [SUCUTINIRANE A] | inactive | 37.3 µg/mL (≈ 99.1 µM)
3 | – | CC(=O)O[C@H]1C[C@H]2[C@@H](C)c3ccoc3C[C@@H]2[C@@]2(C)CCCC(C)(C)[C@H]12 | inactive | 86.6 µg/mL (≈ 251 µM)
4 | – | CC(=O)O[C@H]1C[C@H]2[C@@H](C)C3=CC(=O)O[C@@H]3C[C@@H]2[C@@]2(C)CCCC(C)(C)[C@H]12 [12-DEOXY-SUCUTINIRANE A] | inactive | > 100 µg/mL
5 | – | CC(=O)O[C@H]1C[C@@H]2[C@H]([C@H](O)[C@]3(C=COC3=O)[C@@H]2C)[C@@]2(C)CCCC(C)(C)[C@H]12 | inactive | > 100 µg/mL
6 | 0.39 µg/mL (≈ 0.969 µM) | CC(=O)O[C@H]1[C@H](OC(C)=O)[C@H]2C(C)(C)CCC[C@]2(C)[C@H]2Cc3occc3[C@H](C)[C@H]12 | – | > 100 µg/mL

— ChEMBL document CHEMBL1157444, “Sucutiniranes A and B, new cassane-type diterpenes from Bowdichia nitida” (Bioorg Med Chem Lett, 2008)
